Several values for one entry are separate records, joined by “and”; a condition that tells them apart may be missing. Identical values can stand only once.

For orientation: IC50 means the concentration that gives 50% inhibition. Read a high IC50 as lower potency.

In assay [1] the test system is BJ human normal fibroblast cells. The experiment in a line: MTT cell viability assay, BJ normal fibroblasts. The format is cell-based. Particulars: MTT test, 24 h treatment. How it is done:
(§1) The evaluation of cytotoxicity of tested compounds was carried out on the G361, A375, and SK-MEL-28 human melanoma cells and BJ human normal fibroblast cells. The cell lines were obtained from American Type Culture Collection (ATCC, Manassas, VA, USA). The cells were cultured at 37 °C in the presence of 5% CO2 in atmosphere. The culture medium (Dulbecco’s Modified Eagle’s Medium for G361 and A375 and Eagle’s Minimum Essential Medium for SK-MEL-28 and BJ) was supplemented with 10% foetal bovine serum. The cells morphology was examined under inverted phase contrast microscope Nikon Eclipse Ti (Nikon, Tokyo, Japan). The authenticity of tested cell lines was verified by short tandem repeat (STR) genotyping in the Department of Forensic Medicine (Medical University of Lublin, Lublin, Poland).
(§2) The cells were seeded into 96-well plates (in concentration: BJ, A375, and SK-MEL-28—1 × 10^5 cells/mL, G361—1.5 × 10^5 cells/mL) and cultured until they reach 70–80% confluency. Then the cells were incubated with tested compounds and dacarbazine in concentrations ranging from 10 to 500 µM or DMSO as vehicle in control cultures for next 24 h (max. DMSO concentration <0.5%). The compounds cytotoxicity was evaluated with the MTT colorimetric method based on the ability of viable cells to the transformation of tetrazolium salts (3-[4,5-dimethylthiazol-2-yl]-2,5-) diphenyltetrazolium bromide, MTT) to purple formazan, by cellular dehydrogenases. After 24-h-incubation cell cultures were supplemented with 20 µL of 5 mg/mL MTT (Thermofisher, Waltham, MA, USA) stock in PBS (Corning, NY, USA), and the incubation was continued for 4 h at 37 °C. Next, the medium with MTT was removed, and the formed crystals were dissolved in 200 µL of DMSO (dimethyl sulfoxide, Avantor, Gliwice, Poland). The solution absorbency was measured at 570 nm, using a PowerWave™ xs microplate spectrophotometer (BioTek Instruments, Winooski, VT, USA). The experiment was performed three times with three replicates for each concentration of tested compounds. IC50 values were determined using the AAT Bioquest IC50 calculator [51]. On the basis of obtained IC50 values for normal and malignant cells, A375 cell line and three tested compounds (CuT1, Cu10, CuT16) were chosen for further investigation.
For orientation: Formazan colour is commonly taken as a measure of viable cells.

Assay [2] deals with G361 human melanoma cells. The experiment in a line: MTT cell viability assay, G361 melanoma. The format is cell-based. Particulars: G361, MTT test, 24 h treatment. How it is done: as §1, §2
Assay [3] concerns A375 human melanoma cells. The experiment in a line: MTT cell viability assay, A375 melanoma. The format is cell-based. The note with it: for IC50: A375, MTT test, 24 h treatment; for toxicity to A375 / malignant cells versus normal cells (in words): from IC50 values, MTT, 24 h. On the procedure: as §1, §2
In assay [4] the test system is SK-MEL-28 human melanoma cells. Nature of the assay: MTT cell viability assay, SK-MEL-28 melanoma. It counts as cell-based. The note with it: SK-MEL-28, MTT test, 24 h treatment. How it is done:
as §1, §2

In assay [5] the test system is DNA of A375 cells. The experiment in a line: DNA damage evaluation: number of AP sites. It counts as cell-based, human. Particulars: A375, 24 h, concentration corresponding to IC50; control 0.67 ± 0.08. How it is done:
DNA damage was evaluated on the basis of a basic (AP) sites presence, that arose in response to oxidative damage or as an intermediate in base excision repair pathway. The A375 cells were seeded in 6-well culture plates at a density 1 × 10^5 cells/mL and after 70–80% confluency achievement the cells were treated with CuT1, Cu10, CuT16 in concentrations corresponding to IC50 values or DMSO as vehicle in control cultures. After 24 h of incubation genomic DNA was isolated using Syngen DNA Mini Kit (Syngen Biotech, Wroclaw, Poland) according to the manufacturer’s instruction. The concentrations of isolated DNA for all samples were equalized to 100 µg/mL. The measurements of the number of AP sites were evaluated with DNA Damage Quantification Kit (Dojindo, Japan) according to the manufacturer’s instruction. The DNA was treated with Aldehyde Reactive Probe (ARP) to tag all of the AP sites with a biotin residue. Then all of the AP sites were quantified using avidin—biotin assay. The coloured product of horseradish peroxidase conjugated to the avidin was detected at 650 nm using a PowerWave™ xs microplate spectrophotometer (BioTek Instruments, Winooski, VT, USA).

The test system of assay [6] is ERCC. Nature of the assay: qRT-PCR gene expression in A375 cells: ERCC. The format is cell-based, human. Particulars: A375, 24 h, concentration corresponding to IC50; RQ = 2^-ΔΔCt vs control. On the procedure: (§3) The expression level of genes connected with DNA repair and oxidative stress response was evaluated with quantitative real-time PCR (qRT-PCR) method. The A375 cells were seeded in 6-well culture plates at a density 1 × 10^5 cells/mL and after 70–80% confluency achievement the cells were treated with CuT1, Cu10, CuT16 in concentrations corresponding to IC50 values or DMSO as vehicle in control cultures. After 24h of incubation total RNA was isolated using the Syngen Blood/Cell RNA Mini Kit (Syngen Biotech, Wroclaw, Poland). All samples were transcribed using NG dART RT-PCR reagents (EURx, Gdansk, Poland) according to the manufacturer’s instructions. The relative mRNA expression level was determined by relative quantification method (ΔΔCt) using 18S ribosomal N5 (RNA18SN5) and beta-actin (ACTB) as endogenous controls. The reference genes were selected on the basis of our preliminary studies, where RNA18SN5 and ACTB remained unaffected by the experimental conditions. The PCR was conducted in triplicate using Applied Biosystems® 7500 Fast Real-Time PCR system (Applied Biosystems, Foster City, CA, USA) and SG qPCR Master Mix (2×) (EURx, Gdansk, Poland) in accordance with the manufacturer’s protocol. Data was presented and analysed as RQ values (RQ = 2^−ΔΔCt).

The subject of assay [7] is MGMT. The experiment in a line: qRT-PCR gene expression in A375 cells: MGMT. It counts as cell-based, human. Particulars: A375, 24 h, concentration corresponding to IC50; RQ = 2^-ΔΔCt vs control. How it is done:
as §3
On the technique in general: Quantitative PCR measures a nucleic acid by following its amplification.

Assay [8] has as its system OGG1. The experiment in a line: qRT-PCR gene expression in A375 cells: OGG1. It counts as cell-based, human. Particulars: A375, 24 h, concentration corresponding to IC50; RQ = 2^-ΔΔCt vs control. On the procedure:
as §3

For assay [9], the system named is MLH1. Nature of the assay: qRT-PCR gene expression in A375 cells: MLH1. It counts as cell-based, human. The note with it: A375, 24 h, concentration corresponding to IC50; RQ = 2^-ΔΔCt vs control. How it is done: as §3
In assay [10] the test system is PARP1. Nature of the assay: qRT-PCR gene expression in A375 cells: PARP1. It counts as cell-based, human. Particulars: A375, 24 h, concentration corresponding to IC50; RQ = 2^-ΔΔCt vs control. On the procedure: as §3
In assay [11] the test system is ATM. Nature of the assay: qRT-PCR gene expression in A375 cells: ATM. It counts as cell-based, human. The note with it: A375, 24 h, concentration corresponding to IC50; RQ = 2^-ΔΔCt vs control. On the procedure:
as §3

For assay [12], the system named is XPC. Nature of the assay: qRT-PCR gene expression in A375 cells: XPC. The format is cell-based, human. The note with it: A375, 24 h, concentration corresponding to IC50; RQ = 2^-ΔΔCt vs control. On the procedure:
as §3

In assay [13] the test system is MSH2. The experiment in a line: qRT-PCR gene expression in A375 cells: MSH2. It counts as cell-based, human. The note with it: A375, 24 h, concentration corresponding to IC50; RQ = 2^-ΔΔCt vs control. On the procedure:
as §3

Assay [14] relates to CAT. The experiment in a line: qRT-PCR gene expression in A375 cells: CAT. The note with it: A375, 24 h, concentration corresponding to IC50; RQ = 2^-ΔΔCt vs control. The format is cell-based, human. On the procedure: as §3
Assay [15] deals with GPX2. Nature of the assay: qRT-PCR gene expression in A375 cells: GPX2. The format is cell-based, human. The note with it: A375, 24 h, concentration corresponding to IC50; RQ = 2^-ΔΔCt vs control. On the procedure:
as §3

The test system of assay [16] is SOD2. The experiment in a line: qRT-PCR gene expression in A375 cells: SOD2. Particulars: A375, 24 h, concentration corresponding to IC50; RQ = 2^-ΔΔCt vs control. It counts as cell-based, human. On the procedure: as §3
The subject of assay [17] is A375 cells. The experiment in a line: Microscopic observation of cell morphology. The format is cell-based, human. The note with it: A375, 24 h, concentration corresponding to IC50. How it is done:
The MTT test results for selected compounds were verified by microscopic observations of cell morphology. […] A large part of the cells floated in the culture medium (Figure 5).
as §1

Take `COc1ccc(C=NNC(=S)Nc2ccc(Cl)cc2)cc1OC.[Cl-].[Cl-].[Cu+2]` [CuT16]: the IC50 in assay [1] is 450 ± 11.7 µM; in assay [2], > 500 µM; in [3], 145 ± 19.9 µM; in assay [4] it was 478 ± 11 µM. The “toxicity to A375 / malignant cells versus normal cells (in words)” value in assay [3] was “less toxic for normal cells”. This compound had an AP sites number in assay [5] of 14.09 ± 0.44 AP/100 kbp. Moreover, in assay [6], the “Mean RQ ERCC mRNA” value is given as 0.267. Moreover, the “Mean RQ MGMT mRNA” value in assay [7] is reported as 0.361. In assay [8], the “Mean RQ OGG1 mRNA” value is on record as 0.952. Moreover, the “Mean RQ MLH1 mRNA” value in [9] is recorded as 0.929. Moreover, the “Mean RQ PARP1 mRNA” value in [10] is 0.640. Besides, the “Mean RQ ATM mRNA” value in assay [11] turned out to be 2.724. Further, the “Mean RQ XPC mRNA” value in [12] came out at 1.438. Further, the “Mean RQ MSH2 mRNA” value in assay [13] was 0.936. The “Mean RQ CAT mRNA” value in [14] turned out to be 0.387. Also, the “Mean RQ GPX2 mRNA” value in assay [15] is recorded as 0.022. Besides, the “Mean RQ SOD2 mRNA” value in assay [16] came out at 1.393. Also, in assay [17], the “cell morphology (in words)” value is “became round and had poor adherence”.

Consider `COc1ccc(C=NNC(=S)Nc2ccccc2Cl)cc1OC.COc1ccc(C=NNC(=S)Nc2ccccc2Cl)cc1OC.[Cl-].[Cl-].[Cu+2]` [CuT10], for which the IC50 in [1] came to 203 ± 8.67 µM; in [2], 251 ± 11.1 µM; in assay [3], 26.1 ± 1.75 µM; in assay [4], 133 ± 8.34 µM. Further, the “toxicity to A375 / malignant cells versus normal cells (in words)” value in assay [3] is reported as “less toxic for normal cells”. Further, in assay [5], the AP sites number came to 2.043 ± 0.02 AP/100 kbp. Moreover, the “Mean RQ ERCC mRNA” value in [6] is recorded as 1.215. Also, the “Mean RQ MGMT mRNA” value in assay [7] is recorded as 0.448. Also, the “Mean RQ OGG1 mRNA” value in [8] is 0.264 ± 0.071 and 0.264. In [9], the “Mean RQ MLH1 mRNA” value is 0.337. Also, the “Mean RQ PARP1 mRNA” value in assay [10] is 0.342. Further, the “Mean RQ ATM mRNA” value in assay [11] came out at 2.038. Besides, the “Mean RQ XPC mRNA” value in assay [12] is recorded as 1.456. The “Mean RQ MSH2 mRNA” value in [13] is listed as 1.337. In addition, the “Mean RQ CAT mRNA” value in assay [14] is recorded as 0.801. The “Mean RQ GPX2 mRNA” value in assay [15] amounted to 0.022. In assay [16], the “Mean RQ SOD2 mRNA” value was 1.430. Besides, in assay [17], the “cell morphology (in words)” value is “became round and had poor adherence”.

For `COc1ccc(C=NNC(=S)Nc2ccccc2)cc1OC.[Cl-].[Cl-].[Cu+2]` [CuT1], the IC50 in assay [1] turned out to be 257 ± 4.45 µM; in assay [2], 136 ± 7.01 µM; in assay [3], 69.9 ± 1.87 µM; in assay [4], 130 ± 3.98 µM. Also, the “toxicity to A375 / malignant cells versus normal cells (in words)” value in assay [3] was “less toxic for normal cells”. The AP sites number in assay [5] is 20.24 ± 0.19 AP/100 kbp. In addition, the “Mean RQ ERCC mRNA” value in assay [6] amounted to 0.401. For the same compound, the “Mean RQ MGMT mRNA” value in [7] amounted to 0.715. Further, the “Mean RQ OGG1 mRNA” value in assay [8] was 0.902. Further, in [9], the “Mean RQ MLH1 mRNA” value was 1.001. In addition, in assay [10], the “Mean RQ PARP1 mRNA” value is recorded as 0.908. For the same compound, the “Mean RQ ATM mRNA” value in assay [11] was 1.452. Besides, the “Mean RQ XPC mRNA” value in assay [12] is 1.038. Besides, the “Mean RQ MSH2 mRNA” value in [13] is on record as 0.973. Also, in assay [14], the “Mean RQ CAT mRNA” value stood at 0.773. In addition, the “Mean RQ GPX2 mRNA” value in [15] was found to be 0.000. The “Mean RQ SOD2 mRNA” value in assay [16] is listed as 1.510. The “cell morphology (in words)” value in assay [17] is “became round and had poor adherence”.

Source of the values: paper PMC8002893, “Influence of Complexation of Thiosemicarbazone Derivatives with Cu (II) Ions on Their Antitumor Activity against Melanoma Cells” (International Journal of Molecular Sciences, 2021).
